The values below come from US20210254069A1, “COMBINATION THERAPIES COMPRISING C/EBP ALPHA SARNA” (MiNA THERAPEUTICS LIMITED, priority 2018, published 2021).

In the oligonucleotide strings, read from the 5' end, every base follows the letter of its sugar. An asterisk marks phosphorothioate; unmarked linkages are phosphodiester. Other units and linkages are bracketed, terminal groups are in braces. A string of capitals states the bases alone. [invAb] = inverted abasic unit; d = 2'-deoxy (DNA); m = 2'-O-methyl; r = 2'-OH (RNA)

The test system of series [1] is HCC. The following applies: single agent, published Phase III; cited from earlier work.
The next series has as its system HCC rat DEN model. Put plainly: DEN rat HCC model, tumour volume. It counts as in vivo. The following applies: DEN rats; treated 3x/week for 2 weeks (MTL-CEBPA i.v.; sorafenib P.O. 10 mg/kg); sacrifice day 15; PBS 644.7. The method, then:
(§1) Male Wistar rats (150-180 g) at 7 weeks of age were obtained from the Animal Center of National Taiwan University. The rats were housed in standard conditions, and all the experiments were conducted in accordance with the “Guide for the Care and Use of Laboratory Animals” prepared by the Institutional Animal Care and Use Committee of National Taiwan University. The rats were given DEN solution daily (Sigma, St Louis, Mo.) as the sole source of drinking water for 6 weeks, followed by 3 weeks of regular water. The DEN solution feeding started with 100 ppm in the first week. The average bodyweight (BW) of the animals was measured once a week per group of five rats, and the concentration of DEN in their drinking water was adjusted in proportion to the BW each week relative to that of the first week. […]
On 15th day after treatment, the animals were sacrificed and tumour size and tumour/liver weight were measured. The body, liver, lung, and spleen were weighed, and the aspects of all organs were recorded. After the animals were sacrificed, all liver lobes were promptly removed and weighed, and the diameters of all of the macroscopically visible nodules on the liver surface and in the 5-mm sliced sections were measured. Tumour burden was determined in terms of two criteria: the ratio of liver weight/BW, and the total volume of all the tumour nodules with diameter >3 mm. […]

A further series has as its system alpha-fetoprotein (AFP). Put plainly: DEN rat HCC model, serum alpha-fetoprotein. The format is in vivo. The conditions noted are these: DEN rats, 2 weeks dosing, PBS 27. The method, then: as §1
The serum levels of ALT, AST and total bilirubin were measured with VITROS 5.1 FS Chemistry Systems (Ortho-Clinical Diagnostics, Inc.). The serum level of rat alpha-fetoprotein was evaluated with anti-Rat AFP ELISA Kit (USCN life company/China), following the instructions of the manufacturer.
Serum levels of alpha-fetoprotein (AFP) were measured before treatment and compared to measurement after treatment and represented as ‘AFP change’ (mg/dl). Serum AFP change was measured in each group. […]

The subject of series [2] is Nexavar resistant BNL tumour. Put plainly: Sorafenib-resistant BNL subcutaneous tumour model. It counts as in vivo, mouse. The conditions noted are these: after 3 weeks; MTL-CEBPA 4.2 mg/kg IV d1, d3, d5; anti-PD1 250 ug IP d1, d3, d5; Sorafenib 30 mg/kg PO daily. On the procedure:
Cell Culture: The mouse hepatocellular carcinoma cell line BNL was maintained in Dulbecco's modified Eagle's medium (DMEM, Gibco by Invitrogen) with […] G418 (Merck, Germany), 1% antibiotic antimycotic (Gibco by Invitrogen) and 10% fetal bovine serum (Gibco by Invitrogen) and cultured at 37° C. in a humidified atmosphere.
Tumour Inoculation and Experimental design: Each BALB/c mice were injected subcutaneously (s.c.) on the flank with 3×10^5 BNL-Luc cells in 0.05 ml of PBS. After inoculation for 3 weeks, Nexavar® (Sorafenib) was orally administered every day for two weeks (30 mg/kg/day).
The selected animals were randomized into the 7 treatment groups (Table 18).
60 mice were injected with 3×10^5 of BNL-Luc cells in […] mixture of PBS. After 3 weeks, the mice were dosed with 30 mg/kg of Sorafenib p.o. every day for 2 weeks. […] The 7 groups included PBS as Control group [PBS]; MTL-CEBPA [C], ([…], I.V., d1, d3, d5); anti-PD1 antibody [P] (250 ug, I.P., d1, d3, d5); Nexavar® (Sorafenib) [N] (30 mg/kg, P.O. daily); MTL-CEBPA+anti-PD1 [C+P]; MTL-CEBPA+Nexavar® (Sorafenib) [C+N] and MTL-CEBPA+anti-PD1+Nexavar® (Sorafenib) [C+P+N].

The next series has as its system advanced HCC. The conditions noted are these: cited from earlier work.
The test system of series [3] is Hep3B cells. The experiment in a line: WST-1 growth assay, siFGFR4 / CEBPA-51. It counts as cell-based. The following applies: 20 nM, Mock = 1.00. On the procedure:
HepB3 cells were grown in DMEM supplemented with 10% fetal bovine serum (FBS), 2 mM L-glutamine, and penicillin/streptomycin in a 5% CO2 incubator. Transfections were performed using 2 μL of Lipofectamine 2000 (Life Technologies) per well in 24 well plate.
(§2) HepB3 cells were seeded at 1×10^4 cells/well in a 96 well plate, reverse transfected with oligo at seeding and forward transfected 24 hours later. WST cell viability assay was performed as according to the manufactures' instructions (with 24 hr WST incubation). The WST alone signal has been subtracted from the cell-WST signal.

In another series the test system is CEBPA-mRNA. The experiment in a line: qRT-PCR of CEBPA mRNA, CEBPA-51 with FGFR4 antibody. It counts as cell-based. The following applies: Hep3B; oligo 10 nM, anti-human FGFR4 antibody 30 ug/ml where applicable; 72 hours post-seeding; Mock, no antibody = 1.00. On the procedure: RNA was isolated from cultured cells using the RNeasy Mini Kit (QIAGEN). RNA was quantitated using a Qiaxpert (Qiagen), and reverse transcribed using the Quantitect Reverse Transcription Kit (QIAGEN). Relative expression levels were determined by qPCR using Quantifast SYBR Green Master Mix (QIAGEN) on a Quantstudio 5 (Qiagen). The following Quantitect Primer Assays (QIAGEN) were used: CEBPA_1_SG, FGFR4_1_SG and GAPDH_1_SG. Relative expression was determined the DDCt method normalized to GAPDH expression.
(§3) In another study, Hep3B cells were seeded at 1.0×10^5 cells/well in a 24 well plate in the presence of 30 ug/ml anti-human FGFR4 therapeutic antibody (XPA.48.056; Creative Biolabs) as applicable. Cells were transfected with either 10 nM CEBPA-51 saRNA, 10 nM Control oligo (NC) or transfection agent alone (Mock) at seeding and this was repeated 24 hours post- seeding and culture medium changed at 48 hours. FGFR antibody treatment was maintained throughout the experiment. Cells were harvested for RNA collection 72 hours post-seeding qRT-PCR analysis.

Series [4] relates to Hep3B cells. Put plainly: WST1 growth assay, CEBPA-51 with FGFR4 antibody. The following applies: oligo 10 nM, FGFR4 antibody where applicable, Mock, no antibody = 1.00. The format is cell-based. The method, then: as §2, §3
Treatment of Hep3B cells with FGFR4 antibody reduced cell viability. Combination treatment of both FGFR4 antibody and CEPBA-51 further reduced cell viability as monitored by WST1 growth assay (Table 9A, 96 hours; Table 9B, 120 hours).
(Tetrazolium dyes change colour on reduction, which living cells bring about.)

Series [5] concerns HCC. The conditions noted are these: CHECKMATE-040 subgroup, cited from earlier work.

On to `COc1cc2nccc(Oc3ccc(NC(=O)NC4CC4)c(Cl)c3)c2cc1C(N)=O` [lenvatinib], for which the “partial responses, share of patients” value in the series with HCC [1] is listed as 24%.

Consider `CNC(=O)c1cc(Oc2ccc(NC(=O)Nc3ccc(Cl)c(C(F)(F)F)c3)cc2)ccn1` [Sorafenib], for which, in the series on HCC rat DEN model, the “Tumor volume, Mean” value is reported as 299.5 mm^3. Also, the “AFP change (pre-treatment vs post-treatment), Mean” value in the series with alpha-fetoprotein (AFP) was -36.83 mg/dL. In series [2], the “reduction in tumour volume” value is “no effect” and the “reduction in tumour weight” value is “no effect”. Further, in the series with HCC [1], the “complete responses, share of patients” value was 0% and the “partial responses, share of patients” value was 2%. In addition, the “decrease in the risk of death” value in the series on advanced HCC (patients with advanced HCC) is 31%. For the same compound, the median survival in the series on advanced HCC (patients with advanced disease, placebo 7.9 months) is recorded as 10.7 months.

As for “NC: Negative control oligonucleotide siFLUC, SEQ ID NO: 6 and 7 (chain 1 rCmUmUrAmCrGmCmUrGrArGmUrAmCmUmUmCrGrAdT*dT; chain 2 rUrCrGrArArGmUrArCrUmCrArGrCrGmUrArArGdT*dT)”, the Normalized cell viability in the series on Hep3B cells [3] (96 hours after treatment) worked out at 0.62; in the series with Hep3B cells [3] (120 hours after treatment), 0.70; in the series on Hep3B cells [4] (96 hours after treatment) it was 0.48; in the series with Hep3B cells [4] (120 hours after treatment), 0.59. The compound further showed a CEBPA-mRNA relative expression in the series on CEBPA-mRNA of 0.89.

As for “CEBPA-51: saRNA duplex that upregulates C/EBPa; antisense SEQ ID No. 1, sense SEQ ID No. 2 (sense GCGGUCAUUGUCACUGGUCUU; antisense GACCAGUGACAAUGACCGCUU; sense: sugars from the 5' end mmrmrrrrrmrrrmrrrrrmm, [invAb] at 5' end, backbone not given here; antisense: sugars from the 5' end r19 m2, backbone not given here; further chemistry not fully specified)”, in the series with CEBPA-mRNA, the CEBPA-mRNA relative expression was determined as 1.31. Besides, the Normalized cell viability stood at 0.32 in the series with Hep3B cells [4] (96 hours after treatment) and 0.25 in the series on Hep3B cells [4] (120 hours after treatment).

On to Nivolumab: PD-1 inhibitor, Human IgG, for which, in the series on HCC [5], the “responders with responses lasting 6 months or longer” value is listed as 91% and the “responders with responses lasting 12 months or longer” value is 55%. In addition, the overall response rate with HCC [5] (HCC patients, 95% CI: 9.2, 20.8) is 14.3%. In the series on HCC [5] (HCC patients), the complete responses is recorded as 3 and the partial responses was 19.
